Test results reported in a melting point compilation (Tetko et al.; mined from patent text by program, amines drawn as free bases though some values may be those of a salt).

| SMILES | melting point [°C] |
| --- | --- |
| CSCCCNC(=O)N(O)C[C@@H]1C[C@H]1c1ccccc1 (relative stereo) | 103 to 104 |
| O=C(O)CNc1cc(C(=O)O)nc2ccccc12 | 260 to 261 |
| CCc1ccc2c(c1)C(O)(c1ccccn1)CC(C)(C)CO2 (centres undefined) | 84 |
| CC(C)(C)OC(=O)NCc1cccc(C=CC(=O)O)c1 | 121 to 123 |
| CC(C)OC(=O)c1cc(Cl)c(Cl)c(-c2ccc(Cl)cc2)n1 | 133 to 135 |
| COC(=O)c1ccc(Oc2cc3c(cc2C(C)C)C(C)(C)CCC3(C)C)cc1 | 115 to 116 |
| CC(=O)NC[C@H]1CN(c2cc(F)c(N3CCC4(CC3)CO4)c(F)c2)C(=O)O1 | 160 to 162 |
| CCOC=Cc1ncnc2c1ncn2Cc1ccccc1 | 114 to 115 |
| COC(=O)c1sc(C)c(C#N)c1N(C(=O)OC(C)(C)C)C(=O)OC(C)(C)C | 97 to 102 |
| COc1ccc(C(=O)C=CC(=O)O)cc1OC | 174 to 175 |
| COc1cccc(Cn2cnc3c(Br)c(NC4=NCCN4)ccc32)c1 | 177 to 178 |
| NC(=O)N(O)Cc1ccc(C(O)C#Cc2cccc(Cl)c2)cc1 (centres undefined) | 118 to 119 |
| C#CCOCCn1cnc2c(N)nc3ccccc3c21 | 225 to 227 |
| Cn1nc(-c2ccc(F)cc2)c(-c2ccncc2)c1C=CCc1ccccc1 | 136 to 137 |
| CCCCCc1cc(O)c2c3c(c(=O)oc2c1)SC(C)(C)C3 | 203 to 206 |
| CCCn1cc(Cc2ccc(C(=O)NS(=O)(=O)c3ccccc3C)cc2OC)c2cc(CCC(C)C(=O)N(C)C)ccc21 (centres undefined) | 90 to 93 |
| O=c1[nH]c2cc(Cl)ccc2c(=O)n1CCCN1CC=C(c2ccc(Cl)cc2)CC1 | 225 to 227 |
| COc1ccc(OC)c(C(=O)c2cccc([N+](=O)[O-])c2)c1 | 98 |
| O=C(NCCC(=O)N1CCCC1)c1ccc(-c2ccc3nnn(Cc4ccc5ncccc5c4)c3n2)cc1F | 151 to 153 |
| O=C(NCCn1cncn1)c1ccc(Cl)nc1 | 186 to 188 |
| CC(=O)SCC(Cc1ccccc1)C(=O)NC1(C(=O)OCc2ccccc2)CCCCC1 (centres undefined) | 166 to 168 |

| SMILES | melting point [°C] |
| --- | --- |
| Nc1nc(SSc2n[nH]c(N)n2)n[nH]1 | 250 to 256 |
| c1ccc(CCOc2c3c(nc4ccccc24)CCN(Cc2ccccc2)CC3)cc1 | < 20 |
| CCCCn1c(=O)n(CCC)c(=O)c2c(NC(C)=O)n[nH]c21 | 156 to 158 |
| O=C(N[C@H]1CC[C@H](CCN2CCN(c3nccc4c3OCC4)CC2)CC1)C(F)(F)F | 198 |
| CNC(=O)Oc1ccc(N=C(C)c2ccccc2O)c(C)c1 | 133 to 138 |
| COc1c(C)c(C)c2c(c1C)C(C(=O)O)C(C)(C)O2 (centres undefined) | 185 to 187 |
| COc1cc(C(=O)CCC(=O)c2cc(OCc3ccccc3)c(O)c(S(=O)(=O)CCO)c2)cc(OC)c1OC | 129 to 130 |
| Nc1nc(N)c2ncn(C3OC(COCc4ccccc4)C(OCc4ccccc4)C3OCc3ccccc3)c2n1 (centres undefined) | 158 to 159 |
| CCOC(=O)c1cc(C#N)ccn1 | 170 to 172 |
| COc1ccc2oc3ccccc3c2c1C(=O)Nc1cc(Cl)ccc1Cl | 202 |
| C=CCc1cc2c(c(CC=C)c1O)CCC(=O)N2CCCN1CCN(c2cccc(Cl)c2)CC1 | 118 |
| CC1(C)CCC(C)(C)c2cc(C(O)C#Cc3ccc(C(=O)O)cc3)ccc21 (centres undefined) | 146 to 147 |
| Cc1cc(S(=O)(=O)N(C)CC(O)(CCl)c2ccccc2)ccc1Cl (centres undefined) | 105 to 107 |
| CCNC(=O)/C=C/c1cnoc1-c1ccccc1 | 156 to 157 |
| CCOC(=O)c1oc2cc(O)ccc2c(=O)c1C#N | 262 to 264 |
| O=[N+]([O-])c1ccc(I)c(C(F)(F)F)c1 | 81 to 82 |
| CC(C)c1nc(CCOC(N)=O)n(Cc2ccncc2)c1Sc1cc(Cl)cc(Cl)c1 | 189 to 191 |
| NC(=O)c1sc2ccc(OCc3ccccc3)cc2c1Cl | 206 |
| CN1CCCN(C(=O)Nc2ccccc2Cc2ncc[nH]2)CC1 | 139 to 143 |
| N#Cc1ccc(Cn2cncc2CN2CCC3(CC2)C(=O)Nc2ccccc23)cc1 | 245 to 247 |
| O=c1c2c(Cl)cccc2nc(CSc2ncnc3[nH]cnc23)n1-c1ccccc1F | 244 |

Now from value to compound:

| melting point [°C] | SMILES |
| --- | --- |
| 110 to 111 | O=C1C(=NOCCO)Oc2ccccc21 |
| 284 to 288 | CCc1cc(Cl)cc2[nH]c(=O)c(-c3ccccc3)c(O)c12 |
| 99 to 100 | O=C(OCc1ccccc1)C1NN=C(c2ccc(C(F)(F)F)cc2)S1 (centres undefined) |
| 185 to 186 | O=C(Nc1cccnc1)N1CCN(c2nccc(-c3c(F)cccc3F)n2)CC1 |
| 266 to 267 | CCc1c(Cl)c(CC)c(-c2c(O)c(C)nn(C)c2=O)c(CC)c1Cl |
| 238 to 239 | COC1CN(C(=O)c2cc(-c3ccccc3)c(=O)n3c2-c2cc(Cl)ccc2CN3)C1 |
| 168 to 171 | CNC1=NS(=O)(=O)N=C1NCCSCc1ccccn1 |
| 256 to 258 | Cn1c2cc(Cl)ccc2c2c(C(=O)N3CCCC3)nc(-c3ccncc3)nc21 |
| 150 to 151 | COCCOc1cc(OCCOC)c2c(=O)[nH]c(-c3cc(C)nc(C)c3)nc2c1 |
| 220 to 222 | CCOc1cc2c(Nc3cc(OC)c(Cl)cc3Cl)c(C#N)cnc2cc1C#CCCO |
| 150 to 152 | CC(C)S(=O)(=O)C1C(=O)N(Cc2ccccc2)C(=O)c2ccc(Cl)cc21 (centres undefined) |
| 58 | COCC1CN(c2ccc(OCCC(C)O)cc2)C(=O)O1 (centres undefined) |
| 154 | CCOC(=O)COc1ccc(C=CC(=O)O)cc1 |
| 147 to 148 | O=C(CCc1ccccc1)N[C@H](Cc1ccc(C(F)(F)F)cc1)[C@@H](O)c1ccccc1 (racemic) |
| 285 to 292 | Cc1ccc(Cc2ccc(-c3cnn4c(O)ncnc34)cc2)cc1 |
| 80 to 83 | CC(C)(C)c1cc(CN)n(NCC(F)(F)F)n1 |
| > 300 | CC(C)(C)c1cc(-n2nc3ccc(S(=O)(=O)c4ccc5nn(-c6cc(C(C)(C)C)cc(C(C)(C)C)c6O)nc5c4)cc3n2)c(O)c(C(C)(C)C)c1 |
| 183 to 185 | CCNC(=O)N(C)Cc1cccc2c1CN(C1CCC(=O)NC1=O)C2=O (centres undefined) |
| 199 | CC(Cc1nc(-c2ccccc2)nc2ccccc12)C(=O)NC(CO)c1ccccc1 (centres undefined) |

| melting point [°C] | SMILES |
| --- | --- |
| 173 to 175 | CN(C)C(=O)CCC(=NNC(N)=S)c1ccccc1 |
| 84.5 to 86 | COC(=O)c1sc2c(c1O)CN(C(=O)OC(C)(C)C)CC2 |
| 95 to 99 | CC(C(=O)O)c1c(-c2ccccc2)nn(-c2ccccc2)c1-c1ccccc1 (centres undefined) |
| 139 to 140 | COc1ccc(S(=O)(=O)O)cc1OC(=O)c1ccccc1 |
| 80 to 81 | C=C(CCCCCCCCC)C(N)=O |
| 85 to 87 | CCOC(=O)C1=C(COCc2ccc(CN3CCOCC3)o2)NC(C)=C(C(=O)OC)C1c1ccccc1Cl (centres undefined) |
| 219 to 223 | CNC(=O)c1cc2c(c(F)c1F)N(c1ccc(I)cc1C)COC2=O |
| 157 to 165 | CCOC(=O)c1cn(C2COC2)c2c(C)c(F)c(F)cc2c1=O |
| 285 | Cc1cc(-c2ccc(C(F)(F)F)cc2)cn2c(-c3cc(-c4ncon4)c(S(N)(=O)=O)s3)cnc12 |
| 135 to 136 | COC(=O)c1ccc(C(F)F)nc1C |
| 133 to 135 | COc1cc(N2CCN(C(=O)Cn3nc(C4=NCCN4)c4cccnc43)CC2)ccc1Cl |
| 121 to 122 | CCOc1nn(Cc2ccc(OCc3csc(-c4ccccc4)n3)nc2)cc1CCC(=O)O |
| 152 to 153 | CCCC(CCC)n1c(CC)nc2[nH]c(=O)n(C)c(=O)c21 |
| 179 | CCCC(=O)N(Cc1ccc(OC(F)(F)F)cc1)c1cc(Cl)cc(-c2nnn[nH]2)c1 |
| 243 to 246 | CSCCC1=NS(=O)(=O)NC(N)=N1 |
| 194 to 196 | O=C(O)CNC(=O)c1nc(Cl)c2cc(OCc3ccccc3)ccc2c1O |
| 118 to 120 | COC(=O)C(CNC(C)=O)c1cccc2ccc(OC)cc12 (centres undefined) |
| 61 to 62 | CCc1cc2c(cc1OCc1ccccc1)CCC1C2CCC2(C)C(=CCO)CCC12 (centres undefined) |
| 153 to 155 | Cc1c(OCC(F)(F)F)ccnc1CSc1nc2cc(CO)ccc2[nH]1 |

| melting point [°C] | SMILES |
| --- | --- |
| 309 to 310 | CCOC(=O)c1cnc2nc3ccccc3n2c1O |
| 194 | CC(C)C(c1ccc2[nH]c(=O)cnc2c1)n1ccnc1 (centres undefined) |
| 198 to 200 | CC1(O)CCC2(C)C(CCC3C2CCC2(C)C(c4cc(CO)on4)CCC32)C1 (centres undefined) |
| 168 to 170 | CCCOc1ccc(CCCOc2ccc3c(c2)C=C(C(=O)O)CCS3(=O)=O)cc1 |
| 169 | OC1CSC(Oc2cncc(-c3ccccc3)c2)C(O)C1O (centres undefined) |
| 80 to 81 | COC(=O)CCCC(=O)c1ccc2c(c1)CCO2 |
| 136 | Cc1cc2c(cc1C#N)OCC(C)(C)C=C2c1ccccn1 |
| 77 to 79 | COC1(c2ccc(C#Cc3cc(F)cc(F)c3NC(=O)C(C)(C)C)cc2)CCOCC1 |
| 247 | O=c1cc(N2CCOCC2)[nH]c2c(-c3ccc([N+](=O)[O-])c4c3oc3ccccc34)cccc12 |
| 177 to 178 | CC(C(N)=O)c1cccc2c1Oc1ccccc1CC2=O (centres undefined) |
| 105 to 107 | CCOC(=O)C1=C(C)NC(C(OCC)OCC)=C(C(=O)OCC)C1c1ccccc1OC (centres undefined) |
| 239 to 240 | CS(=O)(=O)c1ccc(-n2nc(C(N)=O)cc2-c2ccc(-c3ccco3)cc2)cc1F |
| 86 to 88.5 | O=C1c2c(-c3ccccc3)noc2CCC1CCCN1CCOCC1 (centres undefined) |
| 139 to 143 | COc1ccc(N2CCN(c3c(C)c(C)c4c(c3C)CC(C)(CN3CCC(O)CC3)O4)CC2)cc1 (centres undefined) |
| 138 to 141 | CC(=O)SCC(Cc1ccccc1)C(=O)Nc1cc2ccccc2cc1C(=O)O (centres undefined) |
| 157 to 161 | NNC(=O)Cc1cc(C(=O)c2ccc(Br)cc2)sc1-c1ccccc1 |
| 112 to 115 | CCCCC(CNC(C)=O)(Cn1cncn1)c1ccccc1 (centres undefined) |
| 218 to 223 | O=C(Nc1ccc(Oc2ccc(Br)cc2)nc1)c1ccccc1C(c1ccc(O)cc1)c1ccc(O)cc1 |
| 195 to 203 | CCn1c(N)nc(N2CCc3ccccc3CC2)c(C#N)c1=O |
